Test results as given in US8673370B2, “Method of improving cardiovascular health” (.Kemin Foods, L.C., priority 2006, dated 2014).

Assays:
Format in all cases: in vivo, rat
normotensive (WKY) rats [1] = assay: Mean arterial pressure (MAP), daily for 14 days, in conscious catheterized normotensive rats; conditions: for Blood pressure, Significance, comparison over 14 days: WKY rats
Description: (§1) Additionally, daily soy isoflavone (SoyLife®, Acatris, Minneapolis, Minn.) supplementation was administered with BCX to both normotensive (WKY) and spontaneously hypertensive (SHR) rats to determine any beneficial hemodynamic contributions of soy to genetic hypertension. Animals receiving daily oral doses of BCX or BCX combined with the soy extract and comparisons of specific hemodynamic parameters (heart rate and blood pressure) were monitored for a period of two weeks in SHR rats and their genetically WKY counterparts. Plasma hydrogen peroxide concentrations were evaluated and show the effects of BCX on reactive oxygen species and their purported contribution to elevations in blood pressure in this hypertensive animal paradigm (Wilcox C. S., Reactive oxygen species: roles in blood pressure and kidney function. Curr Hypertens Rep. 2002 April; 4(2):160-6).
(§2) 1. Three days prior to the beginning of experiments, femoral arterial and venous catheters were implanted for the measurement of blood pressure and heart rate and for the collection of blood samples for the analysis of plasma CRP and cholesterol. Animals were housed in metabolic cages for chronic daily analysis for the remainder of the protocol.
(§3) SHR and WKY rats (Harlan, Indianapolis, Ind.) at age 10 weeks and weighing ˜250 g were used as experimental subjects and monitored for a two week period. All experimental protocols were performed in conscious, unrestrained animals. The animals were individually housed in wire mesh cages in temperature-controlled rooms (23° C.) with a 12-hour light/dark cycle. Each animal was allowed free access to isoflavone reduced chow (Harlan, Indianapolis, Ind.) and distilled water throughout the protocol(s). In addition to ad libitum food and water, animals were dosed daily by oral gavage with BCX (1.0 mg/kg, in safflower oil) or BCX+soy (1.0 mg BCX/kg+80 mg isoflavones/kg, in safflower oil). […]

[2] = system: spontaneously hypertensive (SHR) rats; assay: Mean arterial pressure (MAP), daily for 14 days, in conscious catheterized hypertensive rats
Description: as §1, §2
(§4) SHR and WKY rats (Harlan, Indianapolis, Ind.) at age 10 weeks and weighing ˜250 g were used as experimental subjects and monitored for a two week period. All experimental protocols were performed in conscious, unrestrained animals. The animals were individually housed in wire mesh cages in temperature-controlled rooms (23° C.) with a 12-hour light/dark cycle. Each animal was allowed free access to isoflavone reduced chow (Harlan, Indianapolis, Ind.) and distilled water throughout the protocol(s). In addition to ad libitum food and water, animals were dosed daily by oral gavage with BCX (1.0 mg/kg, in safflower oil) or BCX+soy (1.0 mg BCX/kg+80 mg isoflavones/kg, in safflower oil). BCX dosage levels were based on the amount of BCX humans consume when eating according to the Dietary Guidelines for Americans: 0.5-1.0 mg per day (United States Department of Health and Human Services and United States Department of Agriculture. Dietary Guidelines for Americans 2005. Jan. 12, 2005. http://www.healthierus.gov/dietaryguidelines/; Centers for Disease Control and Prevention. National Center for Health Statistics. National Health and Nutrition Examination Survey Data 2001-2002. http://www.cdc.gov/nchs/about/major/nhanes/nhanes01-02.htm).
All surgical procedures were performed in animals anesthetized with sodium pentobarbital (Nembutal®, Abbott Laboratories) at a dose of 50 mg/kg, i.p. In addition, all surgery was performed under sterile conditions in a location in the laboratory dedicated for that purpose and according to those procedures adopted by the IACUC at Des Moines University-Osteopathic Medical Center. The implantations of femoral arterial and venous catheters were performed three days prior to any experimentation. The arterial and venous catheters were constructed from silicone and Tygon® tubing (Saint-Gobain Performance Plastics Corporation). The smaller silicone tubing was placed within the vessel, via the external iliac artery, to minimize tissue irritation and reaction. Normal body temperature was maintained during anesthesia via an electronically maintained dermal pad. The animals were shaved at the top of the head, back of the neck and the inner left leg. The silicone tips were inserted through a 3.0 cm incision made on the inner left leg for cannulation of the internal iliac vein and femoral artery; the arterial catheter was sutured to the leg in a manner preventing occlusion of the catheter during normal rat movement. Excess catheter was directed subcutaneously and externalized through a 2.5 cm incision made in the dermis overlying bregma. The cranial incision was made with a scalpel after which three 0.19″ jeweler's screws were attached to the cranium in a 1.0 cm^2 area which encompasses bregma. […]

[3] = system: spontaneously hypertensive (SHR) rats; assay: Heart rate (HR), daily for 14 days, in conscious catheterized hypertensive rats; conditions: for Effect on heart rate (in words): vs. control fed food only (SHR-Control)
Description: as §1, §2, §4
All surgical procedures were performed in animals anesthetized with sodium pentobarbital (Nembutal®, Abbott Laboratories) at a dose of 50 mg/kg, i.p. In addition, all surgery was performed under sterile conditions in a location in the laboratory dedicated for that purpose and according to those procedures adopted by the IACUC at Des Moines University-Osteopathic Medical Center. The implantations of femoral arterial and venous catheters were performed three days prior to any experimentation. The arterial and venous catheters were constructed from silicone and Tygon® tubing (Saint-Gobain Performance Plastics Corporation). The smaller silicone tubing was placed within the vessel, via the external iliac artery, to minimize tissue irritation and reaction. Normal body temperature was maintained during anesthesia via an electronically maintained dermal pad. The animals were shaved at the top of the head, back of the neck and the inner left leg. […]

normotensive (WKY) rats [4] = assay: Heart rate (HR), daily for 14 days, in conscious catheterized normotensive rats
Description: as §1, §2, §3

[5] = vs. WKY-Saff (safflower oil only)
[6] = vs. SHR-Control (rat chow only)
[7] = vs. SHR-Saff (safflower oil only)

CC1=C(/C=C/C(C)=C/C=C/C(C)=C/C=C/C=C(C)/C=C/C=C(C)/C=C/C2=C(C)C[C@@H](O)CC2(C)C)C(C)(C)CCC1 [BCX, β-cryptoxanthin]
Change in blood pressure (in words) (normotensive (WKY) rats [1]; WKY normotensive rats, over 14 days of supplementation): did not show any significant blood pressure change
Blood pressure, Significance, comparison over 14 days (normotensive (WKY) rats [1]; vs. WKY-Control): No
Blood pressure, Significance, comparison over 14 days (normotensive (WKY) rats [1]; [5]): No
Days with statistically significant difference in blood pressure ([2]; vs. SHR controls, p<0.05): 4 to 13 days
Blood pressure, Significance, comparison over 14 days [2, 6]: Yes
Blood pressure, Significance, comparison over 14 days [2, 7]: No
Effect on mean arterial pressure / blood pressure (in words) ([2]; vs. control fed food only (SHR-Control)): statistically decreased the blood pressure
Effect on mean arterial pressure / blood pressure (in words) ([2]; vs. control fed food only (SHR-Control), listed as β-cryptoxanthin): significantly lower
Effect on mean arterial pressure / blood pressure (in words) ([2]; vs. safflower oil control (SHR-Saff)): significantly lower
Heart rate, Significance, comparison over 14 days [3, 6]: Yes
Days with statistically significant lower heart rate ([3]; vs. SHR-Control, p<0.05): 6 to 13 days
Heart rate, Significance, comparison over 14 days [3, 7]: No
Effect on heart rate (in words) [3]: statistically decreased the heart rate
Effect on heart rate (in words) ([3]; listed as β-cryptoxanthin): significantly lower
Effect on heart rate (in words) (normotensive (WKY) rats [4]; vs. WKY-Control): statistical decrease in heart rate
Heart rate, Significance, comparison over 14 days (normotensive (WKY) rats [4]; vs. WKY-Control): Yes
Heart rate, Significance, comparison over 14 days (normotensive (WKY) rats [4]; [5]): No
